Reference: patent publication US9594084B2, “Phosphorylation of histones and uses thereof” (H. LEE MOFFITT CANCER CENTER AND RESEARCH INSTITUTE, priority 2012, dated 2017)

Assays:
[1] = tested on: NPAT and RNA polymerase II at Site II; assay: ChIP-qPCR with NPAT or RNA Pol II antibodies at Site II in synchronized MEFs; type: cell-based, mouse; settings: 6.30 hours post-release
Procedure: FIG. 3B-3F are graphs showing histone RNA (relative to actin) in wildtype (WT) and Y40A mutant yeast cells treated with α-factor for 3 hours, washed and harvested at indicated time points post-release. Total RNA was prepared followed by qRT-PCR for histones transcripts. FACS analysis of yeast cells was performed to determine exit of cells from […] (0 minutes) and entry into cell cycle. Data are representative of three independent experiments. The p values for 30 minutes are as follows: #p=0.024; ##p=0.008; ###p=0.0083; ####p=0.037. FIG. 3G to 3H are graphs showing ChIP (% input DNA) in synchronized MEFs treated with WEE1 inhibitor or untreated and harvested 6.30 hours post-release. ChIP was performed using NPAT and IgG antibodies (FIG. 3G) or RNA Pol II and IgG (FIG. 3H) followed by qPCR using primers corresponding to Site II. *p=0.0018, **p=0.01. FIG. 3I is an immunoblot showing total histones prepared from synchronized WT (first three columns) and Y40A mutant yeast cells (last three columns) 0, 20, and 30 minutes post release that were immunoprecipitated with pTyr37-H2B antibodies and immunoblotted with yeast H2B antibodies (upper panel) or yeast tubulin antibodies (bottom panel). […]
To understand the potential mechanism of repression of histone transcription the role of NPAT was assessed. […]

[2] = tested on: pY37-H2B epigenetic marks within IDH2; assay: Directed ChIP-PCR of pY37-H2B marks in IDH2 coding region, synchronized MEFs; type: cell-based, mouse
[3] = tested on: WEE1 expressing cancer cell lines; settings: cited from earlier work
WEE1 [4] = molecular target: T1, WEE1 (Homo sapiens, UniProt P30291); assay: H4 Tyr88 peptide ELISA in vitro kinase assay with purified WEE1; type: biochemical; set-up: GST; purchased Invitrogen; settings: read at 450 nm
T1 sequence (P30291 whole entry): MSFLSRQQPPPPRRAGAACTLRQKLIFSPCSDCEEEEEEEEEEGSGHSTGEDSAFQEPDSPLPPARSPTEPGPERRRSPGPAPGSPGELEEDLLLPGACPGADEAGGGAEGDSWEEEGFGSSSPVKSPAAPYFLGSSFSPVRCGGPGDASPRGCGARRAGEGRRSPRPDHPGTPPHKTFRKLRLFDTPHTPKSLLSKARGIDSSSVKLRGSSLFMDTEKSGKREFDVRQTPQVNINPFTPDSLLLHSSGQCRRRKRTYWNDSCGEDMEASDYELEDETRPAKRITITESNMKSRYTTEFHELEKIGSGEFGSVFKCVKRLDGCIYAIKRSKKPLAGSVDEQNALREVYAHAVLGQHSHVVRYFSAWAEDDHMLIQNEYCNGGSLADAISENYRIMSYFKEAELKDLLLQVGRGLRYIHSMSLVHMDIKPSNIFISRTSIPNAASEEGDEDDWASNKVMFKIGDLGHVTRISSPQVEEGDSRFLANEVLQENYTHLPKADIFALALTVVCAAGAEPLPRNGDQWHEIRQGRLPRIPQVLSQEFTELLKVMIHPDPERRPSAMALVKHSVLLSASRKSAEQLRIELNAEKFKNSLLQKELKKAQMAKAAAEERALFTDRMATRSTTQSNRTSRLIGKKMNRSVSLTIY
Procedure: Biotinylated unphosphorylated and Tyr88-phosphorylated H4 peptides were immobilized on streptavdin 96-well plates. […] ELISA was performed as described in text.
WEE1 and Ack1 are two non-receptor tyrosine kinases or NRTKs that have known nuclear functions. To determine whether WEE1 and Ack1 can directly target H4 for Tyr88-phosphorylation, this study performed in vitro kinase assay. In brief, the Streptavidin coated 96-well plates (R&D systems) were incubated with biotinylated H4-derived peptide […] (SEQ ID NO: 64) for 1 hour. The plates were washed and the purified WEE1 or Ack1 were added in kinase buffer (20 mM HEPES, 150 mM NaCl, 0.5% Triton X-100, 10% Glycerol, phosphatase and protease inhibitors) containing ATP and MgCl2. After 2 hours of incubation, plates were washed with phosphate buffered saline containing 0.1% Tween 20 (PBST) and blocked in 3% BSA. The pY88-H4 antibodies (at 1:500 dilution) were added and incubated for 1 hour. Unbound antibodies were washed and HRP-conjugated anti-mouse secondary Antibodies (1:2000) were added. Magnitude of phosphorylation was detected using developer solution (OPD tablets, Sigma) and the plates were read at 450 nm. As a negative control, no kinase and no peptide reactions were used. The biotinylated phosphopeptide […]p[…] (SEQ ID NO: 65) was used as a positive control.

WEE1 [5] = molecular target: T1, WEE1; assay: Peptide Immunosandwich Assay (PIA) with purified WEE1; type: biochemical; set-up: GST; purchased Invitrogen; settings: purified WEE1 protein (100 ng), 5 uM
Procedure: H2B Tyr37-phosphorylation was determined as described in the text.
In brief, Streptavidin coated 96-well plates (R&D systems) were incubated with biotinylated human histone H2B derived peptides […] (SEQ ID NO: 62, Y37 site is underlined). H2B derived phospho-peptide KRSRKESp[…] (SEQ ID NO: 63) was used as positive control. Any unbound areas on the plate were blocked with 3% BSA. Next, purified WEE1 protein (100 ng) prepared in kinase buffer (20 mM HEPES, 225 mM NaCl, 1% Triton X-100, 10% glycerol, phosphatase and protease inhibitors) supplemented with 1 uM ATP and 1 uM MgCl2. After 2 hours of incubation, plates were washed with phosphate buffered saline containing 0.1% Tween 20 (PBST) and reblocked in 3% BSA. The pY37-H2B or pTyr antibodies (at 1:1000 dilution) were added and incubated for 1 hour. Unbound antibodies were washed and HRP-conjugated anti-mouse secondary antibodies (1:5000) were added. The magnitude of phosphorylation was detected using developer solution (OPD tablets, Sigma) and after 20 minutes of incubation, the plates were read at 450 nm.
The Peptide Immunosandwich Assay was first validated using purified WEE1 protein (100 ng) and cancer derived cell lines (50 ug). […] PIA was also validated using cancer derived cells lines MDA-MB231 (low WEE1 activity) and LAPC4 cells (high WEE1 activity). […] As negative controls, H2B peptide alone or WEE1 enzyme alone were used. […]

recruitment of NPAT at Site II [1]: binding was detected | recruitment of RNA polymerase II at Site II [1]: binding was detected | H4 Tyr88-phosphorylation by WEE1 (WEE1 [4]): significantly decreased | pY37-H2B levels (WEE1 [5]): significant decrease
Compound: C=CCn1c(=O)c2cnc(Nc3ccc(N4CCN(C)CC4)cc3)nc2n1-c1cccc(C(C)(C)O)n1 [MK-1775]
deposition of pY37-H2B epigenetic marks in the IDH2 coding region [2]: abolished | apoptosis [3]: selectively induces apoptosis
